Results taken from patent publication US20020049173A1, “Alteration of cellular behavior by antisense modulation of mRNA processing” (priority 1999, published 2002).
In the oligonucleotide strings, read from the 5' end, every base follows the letter of its sugar. An asterisk marks phosphorothioate; unmarked linkages are phosphodiester. Other units and linkages are bracketed, terminal groups are in braces. A string of capitals states the bases alone. e = 2'-O-(2-methoxyethyl) (MOE); [5mC] = 5-methylcytosine; d = 2'-deoxy (DNA)

Key:
[1] = system: murine IL-5 receptor α mRNA, membrane form; test: Membrane IL-5 receptor α mRNA by Northern blot in BCL1 cells; type: cell-based, mouse; conditions: for % inhibition of membrane IL-5 Rα / % control membrane IL-5 Rα / % inhib'n membrane IL-5 Rα: BCL1 cells, 10 μM; for % inhibition of membrane IL-5 Rα: Northern blot, compared to untreated control, 2′-MOE gapmers; for % control membrane IL-5 Rα / % inhib'n membrane IL-5 Rα: 24 hours, uniform 2′-MOE; for % INHIB'N MEMBRANE IL-5 RECEPTOR: 10 μM dose, exon-exon boundary oligonucleotides
From the text: (§1) Murine BCL1 cells were chosen for screening antisense oligonucleotides targeted to murine IL-5 receptor α. These are B-cell leukemia cells derived from a spontaneously arising tumor of BALB/c origin, and proliferate in response to murine or human IL-5. This is a CD5+line which resembles a subset of human chronic lymphocytic leukemia tumors and secretes IgM upon lipopolysaccharide stimulation. Cells were obtained from the American Type Culture Collection and cultured in RPMI 1640 medium supplemented with 10% heat-inactivated fetal bovine serum (Sigma Chemical Co., St. Louis, Mo.), 10 mM Hepes, pH 7.2, 50 μM 2-ME, 2 mM L-glutamine, 100 U/ml penicillin and 100 μg/ml streptomycin (Gibco, Grand Island, N.Y.).
(§2) The effect of these compounds on both membrane and soluble forms of murine IL-5 receptor α were measured and are shown in Table 1B. Oligonucleotides were screened in BCL1 cells at a dose of 10 μM and IL-5 receptor α mRNA was measured by Northern blot. Percent inhibition is compared to untreated (no oligo) control.
(§3) Total BCL1 cellular RNA was isolated using the RNeasy™ kit (Qiagen, Santa Clara Calif.) . Northern blotting was performed using standard methods. The cDNA probes were generated from oligonucleotides matching the exon sequences of either exons 2, 8, 9 or 10. Signals were quantitated using a Molecular Dynamics PhosphorImager.

[2] = system: murine IL-5 receptor α mRNA, soluble form; test: Soluble IL-5 receptor α mRNA by Northern blot in BCL1 cells; type: cell-based, mouse; conditions: for % inhibition of soluble IL-5 Rα / % control soluble IL-5 Rα: BCL1 cells, 10 μM; for % inhibition of soluble IL-5 Rα: Northern blot, compared to untreated control, 2′-MOE gapmers; for % control soluble IL-5 Rα: 24 hours, uniform 2′-MOE; for % INHIB'N SOLUBLE IL-5 RECEPTOR: 10 μM dose, exon-exon boundary oligonucleotides
From the text: as §1, §2, §3

[3] = system: human bcl-x mRNA; test: Total bcl-x mRNA and bcl-xs/bcl-xl ratio in A549 cells, RNase protection; type: cell-based; conditions: A549 cells; for bcl-xs/bcl-xl: 200 nM oligonucleotide (Table 15)
From the text: (§4) In accordance with the present invention, a series of oligonucleotides were designed to target different regions of human bcl-x RNA, using published sequences (Boise, L. H., et al., 1993, Cell 74, 597-608; Genbank Accession No. L20121, locus name “HSBCLXL,” incorporated herein as SEQ ID NO: 39). Antisense oligonucleotides were designed to target areas of exon 1 and exon 2 of human bcl-x, particularly around the exon 1/exon 2 splice site and in sequence regions present in bcl-xl but not in bcl-xs. All backbone linkages are phosphorothioates; All 2′MOE cytosines are 5-methylcytosines.
(§5) Oligonucleotides were evaluated for their respective effects on bcl-xs and bcl-xl3 mRNA levels in A549 cells along with total bcl-x mRNA levels, using the RIBOQUANT™ RNase protection kit (Pharmingen, San Diego Calif.). All assays were performed according to manufacturer's protocols.
(§6) A “walk” was done in this region with 20mer 2′-MOE phosphorothioate oligonucleotides targeted to sequences whose 5′ ends were 24, 26, 29, 31, 33, 37, 39, 41, 43, 44, 45 and 47 bases upstream of the splice site. These oligonucleotides were screened as before at a dose of 200 nM oligonucleotide for effect on short and long bcl-x transcripts.

[4] = system: human bcl-xs mRNA; test: bcl-xs mRNA in A549 cells, RIBOQUANT RNase protection; type: cell-based; conditions: 200 nM oligonucleotide (Table 15)
From the text: as §4, §5, §6

[5] = system: human bcl-xl mRNA; test: bcl-xl mRNA in A549 cells, RIBOQUANT RNase protection; type: cell-based; conditions: 200 nM oligonucleotide (Table 15)
From the text: as §4, §5, §6

18005 (AGCAGGCAGCTGTTGGGAGC; antisense; listed as DNA, chemistry not fully specified) [compound 18005]
% inhibition of membrane IL-5 Rα [1]: 55%
% inhibition of soluble IL-5 Rα [2]: 59%

SEQ ID NO 58: CCAAGGCTCTAGGTGGTCAT; 20mer 2′-MOE phosphorothioate, no ISIS # printed; Exon 1L 658-677 (all 2'-MOE, all phosphorothioate, methylation of C not given here)
bcl-xs/bcl-xl [3]: 10.42
% CONTROL bcl-xs [4]: 271%
% CONTROL bcl-xl [5]: 26%

21753 (eA*e[5mC]*eA*eA*eT*eG*eA*eG*eA*eT*eG*e[5mC]*e[5mC]*eA*eT*eT*e[5mC]*eT*eA*e[5mC]; splice-switching) [compound 21753]
% control membrane IL-5 Rα [1]: 6%
% inhib'n membrane IL-5 Rα [1]: 94%
% control soluble IL-5 Rα [2]: 175%

18003 (ACAATGAGATGCCATTCTAC; antisense; listed as DNA, chemistry not fully specified) [compound 18003]
% inhibition of membrane IL-5 Rα [1]: 15%
% inhibition of soluble IL-5 Rα [2]: 20%

21759 (eA*e[5mC]*eT*e[5mC]*eT*eG*e[5mC]*eA*eG*eA*eT*eG*eA*eG*eT*eG*eA*eG*eA*eA; splice-switching) [compound 21759]
% control membrane IL-5 Rα [1]: 34%
% inhib'n membrane IL-5 Rα [1]: 66%
% control soluble IL-5 Rα [2]: 134%

18001 (CAAGGACTTCCTTTCCTTTC; antisense; listed as DNA, chemistry not fully specified) [compound 18001]
% inhibition of membrane IL-5 Rα [1]: 35%
% inhibition of soluble IL-5 Rα [2]: 39%

26071 (antisense GCCGTTCTCCTGGATCCAAG; all 2'-MOE, all phosphorothioate, methylation of C not given here) [compound 26071]
bcl-xs/bcl-xl [3]: 7.97
% CONTROL bcl-xs [4]: 295%
% CONTROL bcl-xl [5]: 37%

26072 (antisense CCGCCGTTCTCCTGGATCCA; all 2'-MOE, all phosphorothioate, methylation of C not given here) [compound 26072]
bcl-xs/bcl-xl [3]: 5.38
% CONTROL bcl-xs [4]: 226%
% CONTROL bcl-xl [5]: 42%

21758 (eT*eG*e[5mC]*eA*eG*eA*eT*eG*eA*eG*eT*eG*eA*eG*eA*eA*eG*eA*eT*eT; splice-switching) [compound 21758]
% control membrane IL-5 Rα [1]: 31%
% inhib'n membrane IL-5 Rα [1]: 69%
% control soluble IL-5 Rα [2]: 116%

SEQ ID NO 55: GGCTCTAGGTGGTCATTCAG; 20mer 2′-MOE phosphorothioate, no ISIS # printed; Exon 1L 654-673 (all 2'-MOE, all phosphorothioate, methylation of C not given here)
bcl-xs/bcl-xl [3]: 6.72
% CONTROL bcl-xs [4]: 316%
% CONTROL bcl-xl [5]: 47%

18008 (ACTCTGCAGATGAGTGAGAA; antisense; listed as DNA, chemistry not fully specified) [compound 18008]
% inhibition of membrane IL-5 Rα [1]: 75%
% inhibition of soluble IL-5 Rα [2]: 75%

21851 (eT*eA*eA*eA*eT*eG*eA*e[5mC]*eA*e[5mC]*eA*e[5mC]*eT*e[5mC]*eT*eG*e[5mC]*eA*eG*eA; antisense) [compound 21851]
% INHIB'N MEMBRANE IL-5 RECEPTOR [1]: 61%
% INHIB'N SOLUBLE IL-5 RECEPTOR [2]: 0%

21855 (eT*e[5mC]*eG*eA*eA*eG*eG*eT*eT*eT*e[5mC]*e[5mC]*eA*e[5mC]*eA*eT*eA*eA*eA*eT) [compound 21855]
% INHIB'N MEMBRANE IL-5 RECEPTOR [1]: 14%
% INHIB'N SOLUBLE IL-5 RECEPTOR [2]: 25%

21756 (eA*eA*e[5mC]*eA*eA*eG*eA*e[5mC]*eG*eA*eA*eG*e[5mC]*eA*eG*eG*e[5mC]*eA*eG*e[5mC]; splice-switching) [compound 21756]
% control membrane IL-5 Rα [1]: 6%
% inhib'n membrane IL-5 Rα [1]: 94%
% control soluble IL-5 Rα [2]: 166%

18002 (GCCATTCTACCAAGGACTTC; listed as DNA, chemistry not fully specified) [compound 18002]
% inhibition of membrane IL-5 Rα [1]: 5%
% inhibition of soluble IL-5 Rα [2]: 8%

21754 (eT*eG*eT*eT*eG*eG*eG*eA*eG*e[5mC]*eA*e[5mC]*eA*eA*eT*eG*eA*eG*eA*eT; splice-switching) [compound 21754]
% control membrane IL-5 Rα [1]: 8%
% inhib'n membrane IL-5 Rα [1]: 92%
% control soluble IL-5 Rα [2]: 184%

21751 (e[5mC]*eA*eA*eG*eG*eA*e[5mC]*eT*eT*e[5mC]*e[5mC]*eT*eT*eT*e[5mC]*e[5mC]*eT*eT*eT*e[5mC]; splice-switching) [compound 21751]
% control membrane IL-5 Rα [1]: 9%
% inhib'n membrane IL-5 Rα [1]: 91%
% control soluble IL-5 Rα [2]: 191%

26070 (antisense GTTCTCCTGGATCCAAGGCT; all 2'-MOE, all phosphorothioate, methylation of C not given here) [compound 26070]
bcl-xs/bcl-xl [3]: 6.54
% CONTROL bcl-xs [4]: 242%
% CONTROL bcl-xl [5]: 37%

18007 (eT*eG*e[5mC]*eA*eG*dA*dT*dG*dA*dG*dT*dG*dA*dG*dA*eA*eG*eA*eT*eT; antisense) [compound 18007]
% inhibition of membrane IL-5 Rα [1]: 65%
% inhibition of soluble IL-5 Rα [2]: 65%

18004 (TGTTGGGAGCACAATGAGAT; antisense; listed as DNA, chemistry not fully specified) [compound 18004]
% inhibition of membrane IL-5 Rα [1]: 10%
% inhibition of soluble IL-5 Rα [2]: 20%

18006 (TGAGAAGATTAACAAGACGA; antisense; listed as DNA, chemistry not fully specified) [compound 18006]
% inhibition of membrane IL-5 Rα [1]: 59%
% inhibition of soluble IL-5 Rα [2]: 65%

21757 (eT*eG*eA*eG*eA*eA*eG*eA*eT*eT*eA*eA*e[5mC]*eA*eA*eG*eA*e[5mC]*eG*eA; splice-switching) [compound 21757]
% control membrane IL-5 Rα [1]: 19%
% inhib'n membrane IL-5 Rα [1]: 81%
% control soluble IL-5 Rα [2]: 144%

23172 (GTTCCTGGCCCTTTCGGCTC; listed as DNA, chemistry not fully specified) [compound 23172]
bcl-xs/bcl-xl* (change from the no-oligo ratio 17.56, which reads 1) [3]: 1.1

21752 (eG*e[5mC]*e[5mC]*eA*eT*eT*e[5mC]*eT*eA*e[5mC]*e[5mC]*eA*eA*eG*eG*eA*e[5mC]*eT*eT*e[5mC]) [compound 21752]
% control membrane IL-5 Rα [1]: 6%
% control soluble IL-5 Rα [2]: 194%

21847 (eG*eT*eT*eT*eT*eT*e[5mC]*e[5mC]*eT*eT*e[5mC]*eT*eG*eA*eA*eT*eG*eT*eG*eA; antisense) [compound 21847]
% INHIB'N MEMBRANE IL-5 RECEPTOR [1]: 23%
% INHIB'N SOLUBLE IL-5 RECEPTOR [2]: 20%

21760 (e[5mC]*eT*eA*e[5mC]*eA*e[5mC]*eT*e[5mC]*eT*eG*e[5mC]*eA*eG*eA*eT*eG*eA*eG*eT*eG) [compound 21760]
% control membrane IL-5 Rα [1]: 55%
% inhib'n membrane IL-5 Rα [1]: 45%
% control soluble IL-5 Rα [2]: 116%

21755 (eA*eG*e[5mC]*eA*eG*eG*e[5mC]*eA*eG*e[5mC]*eT*eG*eT*eT*eG*eG*eG*eA*eG*e[5mC]; splice-switching) [compound 21755]
% control membrane IL-5 Rα [1]: 16%
% inhib'n membrane IL-5 Rα [1]: 84%
% control soluble IL-5 Rα [2]: 181%
